The test system of experiment [1] is M. Bovis BCG Wild-type. Kind of experiment: microbe, parasite or virus in culture. The settings on record: Mycobacterium tuberculosis variant bovis BCG. Type of experiment: cell-based.
In experiment [2] the test system is M. Bovis BCG ΔMtpA + MspA. Type of experiment: cell-based.
Experiment [3] relates to M. Bovis BCG ΔMtpA. Type of experiment: cell-based. The conditions noted are these: for Resistance factor: ratio MICΔMtpA/MICwt.
Experiment [4] deals with M. Bovis BCG ΔMtpA + MtpA. Type of experiment: cell-based.
Experiment [5] has as its system ΔMtpA mutant of M. bovis BCG in human monocyte-derived macrophages (HMDM). Type of experiment: cell-based.
Experiment [6] deals with wild-type M. bovis BCG in human monocyte-derived macrophages (HMDM). Type of experiment: cell-based.
Experiment [7] is described as follows: Channel activity analysis, planar lipid bilayer single channel recording. Type of experiment: biochemical.

Values after ≈ are worked out from the molar mass of the structure shown.

`CO[C@H]1/C=C/O[C@@]2(C)Oc3c(C)c(O)c4c(O)c(c(/C=N/N5CCN(C)CC5)c(O)c4c3C2=O)NC(=O)/C(C)=C\C=C\[C@H](C)[C@H](O)[C@@H](C)[C@@H](O)[C@@H](C)[C@H](OC(C)=O)[C@@H]1C` [Rifampicin] registered an MIC in experiment [1] of 0.008 µg/mL (≈ 0.00972 µM).

`CC[C@H]1OC(=O)[C@H](C)[C@@H](O[C@H]2C[C@@](C)(OC)[C@@H](O)[C@H](C)O2)[C@H](C)[C@@H](O[C@@H]2O[C@H](C)C[C@H](N(C)C)[C@H]2O)[C@](C)(O)C[C@@H](C)C(=O)[C@H](C)[C@@H](O)[C@]1(C)O` [Erythromycin A] had an MIC in experiment [1] (wild-type strain) of 16 µg/mL (≈ 21.8 µM). Besides, the “MIC for M. Bovis BCG ΔMtpA + MspA” value in experiment [2] came to 32 µg/mL. For the same molecule, the Resistance factor in experiment [3] is on record as over 16. For the same molecule, the “MIC for M. Bovis BCG ΔMtpA + MtpA” value in experiment [4] is 16 µg/mL.

`Nc1ccc(C(=O)O)c(O)c1` [p-aminosalicylic acid] registered an MIC in experiment [1] (wild-type strain) of 2 µg/mL (≈ 13.1 µM). In addition, in experiment [2], the “MIC for M. Bovis BCG ΔMtpA + MspA” value was found to be 2 µg/mL. Besides, in experiment [3], the “MIC for M. Bovis BCG ΔMtpA” value is over 8 µg/mL; the “change of resistance / MIC in the ΔMtpA mutant, in words” value is “more than eight-fold”; the Resistance factor is over 4. Also, in experiment [4], the “MIC for M. Bovis BCG ΔMtpA + MtpA” value came to 2 µg/mL.

In experiment [1] (wild-type strain), `[H]/N=C(/N)N[C@H]1[C@H](O)[C@@H](O)[C@H](O[C@@H]2O[C@@H](C)[C@](O)(C=O)[C@H]2O[C@@H]2O[C@@H](CO)[C@H](O)[C@@H](O)[C@@H]2NC)[C@@H](N/C(N)=N\[H])[C@@H]1O` [Streptomycin] gave an MIC of 0.16 µg/mL (≈ 0.275 µM). In addition, the “MIC for M. Bovis BCG ΔMtpA + MspA” value in experiment [2] worked out at 0.32 µg/mL. Moreover, in experiment [3], the “MIC for M. Bovis BCG ΔMtpA” value was determined as 0.64 µg/mL and the Resistance factor amounted to 4. In experiment [4], the “MIC for M. Bovis BCG ΔMtpA + MtpA” value was determined as 0.32 µg/mL.

As to `CCn1cc(C(=O)O)c(=O)c2cc(F)c(N3CCNCC3)cc21` [Norfloxacin], in experiment [1] (wild-type strain), the MIC was determined as 1 µg/mL (≈ 3.13 µM). The “MIC for M. Bovis BCG ΔMtpA + MspA” value in experiment [2] came to 2 µg/mL. Also, in experiment [3], the “MIC for M. Bovis BCG ΔMtpA” value came to 4 µg/mL and the Resistance factor is reported as 4. In addition, the “MIC for M. Bovis BCG ΔMtpA + MtpA” value in experiment [4] was found to be 2 µg/mL.

The molecule `COc1c(N2C[C@@H]3CCCN[C@@H]3C2)c(F)cc2c(=O)c(C(=O)O)cn(C3CC3)c12` [Moxifloxacin] came in with an MIC in experiment [1] (wild-type strain) of 0.5 µg/mL (≈ 1.25 µM).

The molecule `N[C@@H]1CON=C1O` [cycloserine] showed an MIC in experiment [1] (wild-type strain) of 4 µg/mL (≈ 39.2 µM). For the same molecule, the “MIC for M. Bovis BCG ΔMtpA + MspA” value in experiment [2] amounted to 4 µg/mL. In experiment [3], the “MIC for M. Bovis BCG ΔMtpA” value was 8 µg/mL and the Resistance factor is given as 2. Moreover, the “MIC for M. Bovis BCG ΔMtpA + MtpA” value in experiment [4] was 4 µg/mL.

In turn, `CC1COc2c(N3CCN(C)CC3)c(F)cc3c(=O)c(C(=O)O)cn1c23` (stereo not shown) [Ofloxacin] came in with an MIC in experiment [1] (wild-type strain) of 0.25 µg/mL (≈ 0.692 µM).

In experiment [1] (wild-type strain), `C[C@H]1COc2c(N3CCN(C)CC3)c(F)cc3c(=O)c(C(=O)O)cn1c23` [Levofloxacin] showed an MIC of 0.125 µg/mL (≈ 0.346 µM).

As for `CC[C@@H](CO)NCCN[C@@H](CC)CO` [Ethambutol], the MIC in experiment [1] (wild-type strain) was found to be 0.125 µg/mL (≈ 0.612 µM). Also, the “MIC for M. Bovis BCG ΔMtpA + MspA” value in experiment [2] was 0.125 µg/mL. In experiment [3], the “MIC for M. Bovis BCG ΔMtpA” value is over 1 µg/mL; the “change of resistance / MIC in the ΔMtpA mutant, in words” value is “more than eight-fold”; the Resistance factor is over 8. Also, in experiment [4], the “MIC for M. Bovis BCG ΔMtpA + MtpA” value was 0.125 µg/mL.

`NNC(=O)c1ccncc1` [Isoniazid] registered an MIC in experiment [1] (wild-type strain) of 0.25 µg/mL (≈ 1.82 µM). Also, in experiment [2], the “MIC for M. Bovis BCG ΔMtpA + MspA” value stood at 0.25 µg/mL. Moreover, in experiment [3], the “MIC for M. Bovis BCG ΔMtpA” value was over 1 µg/mL; the “change of resistance / MIC in the ΔMtpA mutant, in words” value is given as “more than eight-fold”; the Resistance factor was over 4.

Regarding `CC1(C)S[C@@H]2[C@H](NC(=O)[C@H](N)c3ccccc3)C(=O)N2[C@H]1C(=O)O` [Ampicillin], the MIC in experiment [1] (wild-type strain) was 30 µg/mL (≈ 85.9 µM). The “MIC for M. Bovis BCG ΔMtpA + MspA” value in experiment [2] worked out at 60 µg/mL. In addition, in experiment [3], the “MIC for M. Bovis BCG ΔMtpA” value was determined as 960 µg/mL, the “increased minimal inhibitory concentration (MIC) / resistance in the ΔMtpA strain” value worked out at 32 fold and the Resistance factor was 32. The “MIC for M. Bovis BCG ΔMtpA + MtpA” value in experiment [4] was determined as 60 µg/mL.

In experiment [1] (wild-type strain), `O=C(N[C@H](CO)[C@H](O)c1ccc([N+](=O)[O-])cc1)C(Cl)Cl` [Chloramphenicol] showed an MIC of 4 µg/mL (≈ 12.4 µM). Moreover, the “MIC for M. Bovis BCG ΔMtpA + MspA” value in experiment [2] came to 8 µg/mL. In addition, in experiment [3], the “MIC for M. Bovis BCG ΔMtpA” value came out at 64 µg/mL, the “increased minimal inhibitory concentration (MIC) / resistance in the ΔMtpA strain” value came out at 16 fold and the Resistance factor was 16. In addition, in experiment [4], the “MIC for M. Bovis BCG ΔMtpA + MtpA” value amounted to 8 µg/mL.

In the case of `CC[C@H]1OC(=O)[C@H](C)[C@@H](O[C@H]2C[C@@](C)(OC)[C@@H](O)[C@H](C)O2)[C@H](C)[C@@H](O[C@@H]2O[C@H](C)C[C@H](N(C)C)[C@H]2O)[C@](C)(OC)C[C@@H](C)C(=O)[C@H](C)[C@@H](O)[C@]1(C)O` [Clarithromycin], the MIC in experiment [1] (wild-type strain) is 0.125 µg/mL (≈ 0.167 µM). Moreover, the “MIC for M. Bovis BCG ΔMtpA + MspA” value in experiment [2] came out at 0.5 µg/mL. Also, in experiment [3], the “MIC for M. Bovis BCG ΔMtpA” value was over 2 µg/mL and the Resistance factor is recorded as over 16. The “MIC for M. Bovis BCG ΔMtpA + MtpA” value in experiment [4] was 0.25 µg/mL.

On to “γ-interferon: human IFN-γ, induces nitric oxide synthase activity in macrophages”, for which the “survival in treated macrophages compared to untreated cells” value in experiment [5] is listed as “no significant difference”. For the same molecule, the “bacteria recovered from stimulated HMDMs” value in experiment [6] is given as “drastic decrease in bacteria recovered”.

The molecule `CN(C)[C@@H]1C(O)=C(C(N)=O)C(=O)[C@@]2(O)C(O)=C3C(=O)c4c(O)cccc4[C@@](C)(O)[C@H]3C[C@@H]12` [Tetracycline] displayed an MIC in experiment [1] of 31.2 µg/mL (≈ 70.3 µM).

Molecule `O=C(O)c1cn(C2CC2)c2cc(N3CCNCC3)c(F)cc2c1=O` [Ciprofloxacin] returned an MIC in experiment [1] of 1 µg/mL (≈ 3.02 µM). Moreover, the “MIC for M. Bovis BCG ΔMtpA + MspA” value in experiment [2] came out at 2 µg/mL. Also, in experiment [4], the “MIC for M. Bovis BCG ΔMtpA + MtpA” value is 2 µg/mL.

As to `CN[C@H](CC(C)C)C(=O)N[C@H]1C(=O)N[C@@H](CC(N)=O)C(=O)N[C@H]2C(=O)N[C@H]3C(=O)N[C@H](C(=O)N[C@H](C(=O)O)c4cc(O)cc(O)c4-c4cc3ccc4O)[C@H](O)c3ccc(c(Cl)c3)Oc3cc2cc(c3O[C@@H]2O[C@H](CO)[C@@H](O)[C@H](O)[C@H]2O[C@H]2C[C@](C)(N)[C@H](O)[C@H](C)O2)Oc2ccc(cc2Cl)[C@H]1O` [Vancomycin], the MIC in experiment [1] was 5 µg/mL (≈ 3.45 µM). For the same molecule, the “MIC for M. Bovis BCG ΔMtpA + MspA” value in experiment [2] came out at 10 µg/mL. In addition, in experiment [3], the “MIC for M. Bovis BCG ΔMtpA” value was found to be 20 µg/mL and the Resistance factor was determined as 4. The “MIC for M. Bovis BCG ΔMtpA + MtpA” value in experiment [4] worked out at 10 µg/mL.

B1: N-terminal domain of MtpA (aa 49-444): truncated N-terminal domain of MtpA, codon optimized, Strep-, HA- and His-tagged, purified from E. coli (protein, UniProt O05442 49-444, looked up, fragment)
chain: GAVFGRSYDGSAAALVQAMSVARNGLCNLGDGVRMSAHNYSLAEAMSDVAGRAAPLPAPPPSGCVGVGAPPSAVGGGGGAPKGWGWVAPYIGMIWPNGDSTKLRAAAVAWRSAGTQFALTEIQSTAGPMGVIRAQQLPEAGLIESAFADAYASTTAVVGQCHQLAAQLDAYAARIDAVHAAVLDLLARICDPLTGIKEVWEFLTDQDEDEIQRIAHDIAVVVDQFSGEVDALAAEITAVVSHAEAVITAMADHAGKQWDRFLHSNPVGVVIDGTGQQLKGFGEEAFGMAKDSWDLGPLRASIDPFGWYRSWEEMLTGMAPLAGLGGENAPGVVESWKQFGKSLIHWDEWTTNPNEALGKTVFDAATLALPGGPLSKLGSKGRDILAGVRGLKERLE
modifications: Strep, HA and His tags
notes: truncated N-terminal domain of MtpA, codon optimized, Strep-, HA- and His-tagged, purified from E. coli
On to B1, for which the “single channel conductance of protein purified from E. coli compared to that purified from M. smegmatis” value in experiment [7] is reported as “almost identical”.

B2: N-terminal domain of MtpA: N-terminal domain (aa 1-444) of MtpA (Rv3903c), HA- and His-tagged, expressed in and purified from M. smegmatis (protein, UniProt O05442 1-444, looked up, fragment)
chain: MAPLAVDPAALDSAGGAVVAAGAGLGAVISSLTAALAGCAGMAGDDPAGAVFGRSYDGSAAALVQAMSVARNGLCNLGDGVRMSAHNYSLAEAMSDVAGRAAPLPAPPPSGCVGVGAPPSAVGGGGGAPKGWGWVAPYIGMIWPNGDSTKLRAAAVAWRSAGTQFALTEIQSTAGPMGVIRAQQLPEAGLIESAFADAYASTTAVVGQCHQLAAQLDAYAARIDAVHAAVLDLLARICDPLTGIKEVWEFLTDQDEDEIQRIAHDIAVVVDQFSGEVDALAAEITAVVSHAEAVITAMADHAGKQWDRFLHSNPVGVVIDGTGQQLKGFGEEAFGMAKDSWDLGPLRASIDPFGWYRSWEEMLTGMAPLAGLGGENAPGVVESWKQFGKSLIHWDEWTTNPNEALGKTVFDAATLALPGGPLSKLGSKGRDILAGVRGLKERLE
modifications: HA and His tags
notes: N-terminal domain (aa 1-444) of MtpA (Rv3903c), HA- and His-tagged, expressed in and purified from M. smegmatis
As to B2, in experiment [7], the “most frequent (main) single channel conductance” value came to 4.0±0.2 nS.

These data come from patent publication US10017550B2, “Mycobacterium tuberculosis porins and toxins and related methods” (priority 2011, dated 2018).
